Target: Acetylcholinesterase (Homo sapiens) (UniProt P22303)
Test: Inhibition of AChE at 95 umol

Acetylcholinesterase (Homo sapiens), sequence (P22303 whole entry): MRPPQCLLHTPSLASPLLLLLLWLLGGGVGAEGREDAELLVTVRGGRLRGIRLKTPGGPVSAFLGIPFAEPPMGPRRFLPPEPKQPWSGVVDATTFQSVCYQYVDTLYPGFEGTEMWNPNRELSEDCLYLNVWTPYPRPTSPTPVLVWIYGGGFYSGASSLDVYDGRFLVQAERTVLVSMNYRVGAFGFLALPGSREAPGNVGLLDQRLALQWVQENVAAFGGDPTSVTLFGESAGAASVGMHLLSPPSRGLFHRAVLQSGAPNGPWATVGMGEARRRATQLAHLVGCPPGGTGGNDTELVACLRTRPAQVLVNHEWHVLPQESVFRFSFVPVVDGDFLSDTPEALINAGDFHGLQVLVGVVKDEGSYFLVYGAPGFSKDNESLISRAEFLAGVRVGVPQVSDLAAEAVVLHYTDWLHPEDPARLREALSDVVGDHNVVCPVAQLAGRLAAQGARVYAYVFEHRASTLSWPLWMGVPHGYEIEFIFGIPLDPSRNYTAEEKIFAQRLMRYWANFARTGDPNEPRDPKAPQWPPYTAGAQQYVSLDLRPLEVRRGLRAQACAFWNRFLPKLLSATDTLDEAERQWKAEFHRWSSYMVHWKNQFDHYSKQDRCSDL

SMILES: C[C@H]1CC(=O)N2CCCC3=C(C1)C(=O)O[C@H]3CCC2
- inhibition: 27%
